Assay results published in patent US20070010664A1, “Gene expression in the central nervous system regulated by neuroleptic agents” (priority 2001, published 2007).

Experiments:
[1] = system: mouse sequence homolog to human KIAA1451 (SEQ ID NO:79); assay: Real Time PCR of mouse sequence homolog to human KIAA1451; conditions: mice chronically treated
[2] = system: CLZ_40 (SEQ ID NO:12) mRNA; assay: Real Time PCR validation of CLZ_40; format: in vivo, mouse; conditions: mice chronically (2 weeks) treated
Excerpt: Validation of the DST expression for select DSTs was done by Real Time PCR using the ABI PRISM 7700 Sequence Detection System (PE Biosystems) that combines PCR, cycle-by-cycle fluorescence detection and analysis software for high-throughput quantitation of nucleic acid sequences. […] Standards for normalizing the quantitation of gene levels were chosen from a panel of 5 mouse “housekeeping” genes.

[3] = system: CLZ_44 (SEQ ID NO:38) mRNA; assay: Northern blot analysis of CLZ_44 in striatum/nucleus accumbens; format: in vivo, mouse; conditions: 2 weeks of treatment; clozapine 7.5 mg/kg, haloperidol 4 mg/kg, ketanserin 4 mg/kg
Experimental: FIG. 39 is a graphical representation of a Northern Blot analysis of clone CLZ—44 (ACGG 352) (SEQ ID NO:38), where an agarose gel containing poly A enriched mRNA from the striatum/nucleus accumbens of clozapine-treated mice as well as size standards was blotted after electrophoresis and probed with radiolabelled CLZ—44.
In further characterization of CLZ—44, Northern blot analyses were performed to determine the pattern of expression in the striatum/nucleus accumbens after 2 weeks of treatment of control mice, clozapine-treated mice, haloperidol-treated mice, and ketanserin-treated mice (FIG. 39). Ketanserin is a 5HT2A/2C—selective antagonist, and is used to determine serotonorgic involvement in these drug effects. FIG. 39 is a graphical representation of the described northern blot analyses.

[4] = system: CLZ_5 (apoD) mRNA; assay: Real Time PCR validation of CLZ_5 (apoD); format: in vivo, mouse; conditions: clozapine or haloperidol treated mice
[5] = system: mRNAs (DSTs) expressed in striatum/nucleus accumbens; assay: TOGA analysis of mRNA from striatum/nucleus accumbens of neuroleptic-treated mice (Table 1); conditions: haloperidol experiment in duplicate, average
[6] = system: apoD mRNA; assay: In situ hybridization analysis of apoD (CLZ_5) in mouse brain; format: in vivo; conditions: clozapine 7.5 mg/kg five days and two weeks: striatum, cortex, globus pallidus, thalamus, white matter tracts; haloperidol: gray or white matter regions
Experimental: In further characterization of CLZ—43, in situ hybridization analysis using an antisense cRNA probe directed against the 3′ end of CLZ—43 were performed to show the pattern of CLZ—43 mRNA expression (FIG. 4A-F). In situ hybridization was performed on free-floating coronal sections (25 μM thick) with an ^35S-labeled, single-stranded antisense cRNA probe of CLZ—43. Coronal sections were hybridized at 55° C for 16 hour with an ^35S-labeled, single-stranded antisense cRNA probe of CLZ—43 at 10^7 cpm/ml. The probe was synthesized from the 3′-ended cDNA TOGA™ clone using the Maxiscript Transcription Kit (Ambion, Austin, Tex.). Excess probe was removed by washing with 2×SSC (I×SSC=[…]) containing 14 mM β-mercaptoethanol (30 minutes), followed by incubation with 4 μg/ml ribonuclease in 0.5 M NaCl/0.05 M EDTA/0.05 M Tris-HCl, pH 7.5, for 1 hour at 37° C. High stringency washes were carried out at 55° C. for 2 hours in 0.5×SSC/50% formamide/0.01 M β-mercaptoethanol, and then at 68° C. for 1 hour in 0.1×SSC/0.01 M β-mercaptoethanol/0.5% sarkosyl. […]
To investigate additional sites of apoD induction, in situ hybridization analysis was performed on brains from saline- and clozapine-treated mice. […] Increases in apoD expression were also detected in white matter tracts, predominantly the corpus callosum (cc), anterior commissure, internal capsule (ic) and optic tract (opt). […]

[7] = system: CLZ_43 (SEQ ID NO:37) mRNA; assay: Real Time PCR validation of CLZ_43; conditions: clozapine 12 days; haloperidol 14 days; relative to untreated mice
[8] = system: apoD mRNA; assay: apoD mRNA expression in mouse brain after 5HT2 antagonists (preliminary results); format: in vivo
[9] = system: CLZ_40 (TTGT 266) mRNA in striatum and amygdala; assay: TOGA analysis of mRNA from brain of morphine-treated mice; format: in vivo, mouse
Experimental: For the morphine studies, male C57B1/6J mice (20-28 g) were housed as previously described in Example 1 and divided into the following groups: 1) a control group, in which the mice were subcutaneusly implanted with one placebo pellet upon halothane anaesthesia; 2) an acute morphine group, in which the mice received a morphine intraperitoneal injection of 10 mg/kg; 3) a chronic or tolerant group, in which mice were rendered drug-tolerant and dependent by means of subcutaneous implantation of a single pellet containing 75 mg of morphine free base for 3 days; and 4) a withdrawal group, in which the mice rendered tolerant to morphine were injected intraperitoneally with naltrexone 1 mg/kg. […] Their brains were rapidly removed. The striatum, including the nucleus accumbens, and block of tissues containing the amygdala complex were dissected under microscope and collected in ice-cold RNA extraction buffer.

In the case of `CN1CCN(C2=Nc3cc(Cl)ccc3Nc3ccccc32)CC1` [clozapine], the “increase in expression of mouse homolog to human KIAA1451, Real Time PCR” value [1] is reported as 2.09 fold and the “decrease in expression of CLZ_40, Real Time PCR” value [2] is reported as 0.37 fold.
With `O=C(CCCN1CCC(O)(c2ccc(Cl)cc2)CC1)c1ccc(F)cc1` [haloperidol] the “CLZ_44 expression, Northern” value [3] was “up-regulated”, the “increase in expression of CLZ_5 (apoD), Real Time PCR” value [4] was 1.75 fold and the “CLZ_43 TOGA profile for the haloperidol response” value [5] was 1.08 fold. The “increase in expression of mouse homolog to human KIAA1451, Real Time PCR” value [1] was 2.57 fold, the “apoD mRNA, in situ hybridization” value [6] was “did not reveal substantial increases” and the “CLZ_43 expression, TOGA and Real Time PCR” value [7] was “not significantly responsive”. The “decrease in expression of CLZ_40, Real Time PCR” value [2] was 0.66 fold.
For `O=C(c1ccc(F)cc1)C1CCN(CCn2c(=O)[nH]c3ccccc3c2=O)CC1` [ketanserin], the “CLZ_44 expression, Northern” value [3] was “up-regulated” and the “apoD mRNA expression in mouse brain” value [8] was “apparent upregulation”.
With `CN1CC[C@]23c4c5ccc(O)c4O[C@H]2[C@@H](O)C=C[C@H]3[C@H]1C5` [morphine] the “CLZ_40 expression in striatum, TOGA” value ([9]; acute morphine 10 mg/kg i.p., withdrawal (naltrexone 1 mg/kg in morphine-tolerant mice)) was “downregulated in withdrawal striatum but not acutely treated striatum”, the “CLZ_40 expression in amygdala, TOGA” value ([9]; acutely treated (morphine 10 mg/kg i.p., 4 hours)) was “slightly upregulated” and the “CLZ_40 expression in amygdala, TOGA” value ([9]; chronically treated (75 mg pellet, 3 days) and withdrawal) was “increasingly upregulated”.
